Source: patent US20030229451A1, “Methods and systems for analyzing complex biological systems” (priority 2001, published 2003)

Tested on: Saccharomyces cerevisiae wild type strain BY4743
Experiment: AF1 metabolite analysis (GC-MS, LC-MS) of yeast cells treated with antifungal drugs
Assay type: cell-based
Conditions: for # Compounds perturbed: 2x MIC, two hours; for Fold Change of NacetylDglucosamine: metabolite NacetylDglucosamine; for Fold Change of NacetylLglutamate: metabolite NacetylLglutamate; for Fold Change of NacetylLornithine: metabolite NacetylLornithine; for Fold Change of nicotinic acid: metabolite nicotinic acid; for Fold Change of nopaline: metabolite nopaline; for Fold Change of oleic acid: metabolite oleic acid; for Fold Change of ornithine: metabolite ornithine; for Fold Change of phenylalanine: metabolite phenylalanine; for Fold Change of phosphoenolpyruvate: metabolite phosphoenolpyruvate; for Fold Change of pipecolic acid: metabolite pipecolic acid; for Fold Change of proline: metabolite proline; for Fold Change of pyridoxine: metabolite pyridoxine; for Fold Change of selenoDLmethionine: metabolite selenoDLmethionine; for Fold Change of serine: metabolite serine; for Fold Change of sugar-phosphate: metabolite sugar-phosphate; for Fold Change of tetradecanoic acid: metabolite tetradecanoic acid; for Fold Change of threonine/homoserin: metabolite threonine/homoserin; for Fold Change of thymine: metabolite thymine; for Fold Change of tryptophan: metabolite tryptophan; for Fold Change of tyrosine: metabolite tyrosine; for Fold Change of urocanic acid: metabolite urocanic acid; for Fold Change of valine: metabolite valine; for Fold Change of zeatin: metabolite zeatin

CC[C@@H]([C@H](C)O)n1ncn(-c2ccc(N3CCN(c4ccc(OC[C@@H]5CO[C@@](Cn6cncn6)(c6ccc(F)cc6F)C5)cc4)CC3)cc2)c1=O [Posaconazole]
# Compounds perturbed (P < 0.05): 3 | # Compounds perturbed (P < 0.1): 4 | Fold Change (metabolite 2-ketobutyric acid, platform nLC): −0.9992 | Fold Change (metabolite 2-ketoglutaric, platform nLC): 11.33 | Fold Change (metabolite 3-indolylacetonitri, platform nLC): −0.9998 | Fold Change (metabolite 4-aminobenzoic acid, platform pLC): 0 | Fold Change (metabolite 4-methylcatechol, platform nLC): 0 | Fold Change (metabolite 4-methylcatechol, platform pLC): 0 | Fold Change (metabolite 4ambutyrate/dimglyc, platform pLC): 31.37 | Fold Change (metabolite 4aminobutyrate/dimg, platform nLC): −0.008939 | Fold Change (metabolite 5hydroxyLtryptophan, platform nLC): 0 | Fold Change (metabolite 5hydroxyLtryptophan, platform pLC): 0 | Fold Change (metabolite 6-benzylaminopurine, platform nLC): 0 | Fold Change (metabolite 6benzylaminopurine, platform pLC): 0 | Fold Change (metabolite DLaminoadipic acid, platform nLC): −0.9935 | Fold Change of NacetylDglucosamine (platform nLC): 0 | Fold Change of NacetylDglucosamine (platform pLC): 0 | Fold Change of NacetylLglutamate (platform nLC): −0.07165 | Fold Change of NacetylLglutamate (platform pLC): 0 | Fold Change of NacetylLornithine (platform nLC): 0 | Fold Change of NacetylLornithine (platform pLC): 0.1338 | Fold Change of TMS mevalonic acid lactone (metabolite TMS mevalonic acid lactone, platform GC): −0.3118 | Fold Change (metabolite abscisic acid, platform nLC): 0 | Fold Change (metabolite abscisic acid, platform pLC): 0 | Fold Change (metabolite aconitic acid, platform nLC): 1.874 | Fold Change (metabolite adenine, platform nLC): 0 | Fold Change (metabolite adenine, platform pLC): −0.0145 | Fold Change (metabolite adenosine, platform nLC): 128.3 | Fold Change (metabolite adenosine, platform pLC): 0 | Fold Change (metabolite alanine/sarcosine, platform pLC): 0.1013 | Fold Change (metabolite alanine, platform GC): 1.035 | Fold Change (metabolite alanine, platform nLC): 0.1091 | Fold Change (metabolite allantoic acid, platform nLC): 0.3321 | Fold Change (metabolite allantoic acid, platform pLC): 0 | Fold Change (metabolite allantoin, platform nLC): 5.97 | Fold Change (metabolite anthranillic acid, platform nLC): 0 | Fold Change (metabolite anthranillic acid, platform pLC): 0 | Fold Change (metabolite arginine, platform nLC): 0.1707 | Fold Change (metabolite arginine, platform pLC): 0.03383 | Fold Change (metabolite argininosuccinate, platform nLC): 318.3 | Fold Change (metabolite argininosuccinate, platform pLC): 0 | Fold Change (metabolite asparagine, platform GC): 0.145 | Fold Change (metabolite asparagine, platform nLC): 0.006865 | Fold Change (metabolite asparagine, platform pLC): 0.4302 | Fold Change (metabolite aspartic acid, platform GC): −0.071 | Fold Change (metabolite aspartic acid, platform pLC): 0.3626 | Fold Change (metabolite aspartic, platform nLC): 0.305 | Fold Change (metabolite benzoic acid, platform nLC): 0 | Fold Change (metabolite biotin, platform nLC): −0.9992 | Fold Change (metabolite biotin, platform pLC): 0 | Fold Change (metabolite caffeic acid, platform nLC): −0.49 | Fold Change (metabolite caffeine, platform pLC): 0 | Fold Change (metabolite campesterol, platform GC): 0 | Fold Change (metabolite catechol, platform nLC): 0 | Fold Change (metabolite cinnamic acid, platform nLC): 0 | Fold Change (metabolite citric acid TME, platform pLC): 0 | Fold Change (metabolite citricanoic/itaconi, platform nLC): 0 | Fold Change (metabolite citrulline, platform nLC): 1160 | Fold Change (metabolite citrulline, platform pLC): 0.1011 | Fold Change (metabolite coumaric acid, platform nLC): 0 | Fold Change (metabolite cytidine, platform nLC): −0.9986 | Fold Change (metabolite cytidine, platform pLC): 0 | Fold Change (metabolite cytosine, platform nLC): 0 | Fold Change (metabolite cytosine, platform pLC): 1135 | Fold Change (metabolite decanoic acid, platform nLC): 0.1263 | Fold Change (metabolite desmosterol, platform GC): 0 | Fold Change (metabolite diaminopimelic acid, platform nLC): 0 | Fold Change (metabolite diaminopimelic acid, platform pLC): 0 | Fold Change (metabolite dihydrofolic acid, platform nLC): 0 | Fold Change (metabolite dihydrofolic acid, platform pLC): 0 | Fold Change (metabolite dipicolinic acid, platform pLC): 0 | Fold Change (metabolite disaccaride1, platform GC): 0.04733 | Fold Change (metabolite disaccaride2, platform GC): 0.313 | Fold Change (metabolite disaccaride3, platform GC): 0.3407 | Fold Change of mevalonic acid lactone (metabolite mevalonic acid lactone, platform GC): 0.5555 | Fold Change of mevalonic lactone (metabolite mevalonic lactone, platform pLC): −0.08368 | Fold Change of niacinamide (metabolite niacinamide, platform pLC): 0 | Fold Change of nicotinic acid (platform nLC): 1.421 | Fold Change of nicotinic acid (platform pLC): −0.8142 | Fold Change of nopaline (platform nLC): 0.7554 | Fold Change of nopaline (platform pLC): 0 | Fold Change of octadecanoic acid (metabolite octadecanoic acid, platform GC): 0.321 | Fold Change of oleic acid (platform GC): −0.5057 | Fold Change of oleic acid (platform nLC): 0.5606 | Fold Change of ornithine2 (metabolite ornithine2, platform GC): −0.1383 | Fold Change of ornithine3 (metabolite ornithine3, platform GC): 0.041 | Fold Change of ornithine (platform nLC): 2.314 | Fold Change of ornithine (platform pLC): 0.4314 | Fold Change of orotic acid (metabolite orotic acid, platform nLC): 0 | Fold Change of palmiteliadic acid (metabolite palmiteliadic acid, platform GC): −0.2453 | Fold Change of palmitic acid (metabolite palmitic acid, platform nLC): 0.1518 | Fold Change of phenylalanine (platform GC): 0.06069 | Fold Change of phenylalanine (platform nLC): −0.03702 | Fold Change of phenylalanine (platform pLC): −0.1585 | Fold Change of phenylpyruvic acid (metabolite phenylpyruvic acid, platform nLC): 0 | Fold Change of phosphate (metabolite phosphate, platform GC): −0.1833 | Fold Change of phosphoenolpyruvate (platform nLC): 0 | Fold Change of phosphoenolpyruvate (platform pLC): 0 | Fold Change of pinitol (metabolite pinitol, platform nLC): 0 | Fold Change of pipecolic acid (platform nLC): 0.1806 | Fold Change of pipecolic acid (platform pLC): 0.3444 | Fold Change of porphobilinogen (metabolite porphobilinogen, platform nLC): 0 | Fold Change of progesterone (metabolite progesterone, platform pLC): 0 | Fold Change of proline (platform nLC): 0.3147 | Fold Change of proline (platform pLC): 0.3157 | Fold Change of pyridoxine (platform nLC): −0.1015 | Fold Change of pyridoxine (platform pLC): −0.239 | Fold Change of pyrimidine (metabolite pyrimidine, platform GC): 0.159 | Fold Change of retinoic acid (metabolite retinoic acid, platform nLC): 0 | Fold Change of riboflavin (metabolite riboflavin, platform pLC): 0 | Fold Change of salicylic/HObenzoic (metabolite salicylic/HObenzoic, platform nLC): 0 | Fold Change of selenoDLmethionine (platform nLC): −0.6722 | Fold Change of selenoDLmethionine (platform pLC): −0.7083 | Fold Change of serine (platform nLC): 0.152 | Fold Change of serine (platform pLC): 0.2417 | Fold Change of shikimic acid (metabolite shikimic acid, platform nLC): 0 | Fold Change of sinapinic acid (metabolite sinapinic acid, platform nLC): 0 | Fold Change of sorbitol/mannitol (metabolite sorbitol/mannitol, platform nLC): 0.009121 | Fold Change of squalene (metabolite squalene, platform GC): 0.07431 | Fold Change of succinic (metabolite succinic, platform nLC): −0.06141 | Fold Change of sucrose (metabolite sucrose, platform nLC): 0.1847 | Fold Change of sugar-phosphate (platform nLC): −0.04543 | Fold Change of sugar-phosphate (platform pLC): 0 | Fold Change of tetradecanoic acid (platform GC): −0.214 | Fold Change of tetradecanoic acid (platform nLC): 1.029 | Fold Change of thiamine (metabolite thiamine, platform pLC): 0 | Fold Change of threonine2 (metabolite threonine2, platform GC): 0.457 | Fold Change of threonine3 (metabolite threonine3, platform GC): 0.225 | Fold Change of threonine/homoserin (platform nLC): 0.04034 | Fold Change of threonine/homoserin (platform pLC): 0.1437 | Fold Change of thymine (platform nLC): 0 | Fold Change of thymine (platform pLC): 0 | Fold Change of tms glutamine3 (metabolite tms glutamine3, platform GC): 0.6709 | Fold Change of tms lysine4 (metabolite tms lysine4, platform GC): 0.05667 | Fold Change of tms tyrosine2 (metabolite tms tyrosine2, platform GC): 1.228 | Fold Change of tms tyrosine3 (metabolite tms tyrosine3, platform GC): 0.1911 | Fold Change of tryptophan (platform nLC): 4.676 | Fold Change of tryptophan (platform pLC): 0 | Fold Change of tyrosine (platform nLC): 0.0282 | Fold Change of tyrosine (platform pLC): 0.1008 | Fold Change of uracil (metabolite uracil, platform nLC): −0.2779 | Fold Change of uric acid (metabolite uric acid, platform pLC): 0 | Fold Change of uridine (metabolite uridine, platform nLC): 0.02855 | Fold Change of urocanic acid (platform nLC): 0 | Fold Change of urocanic acid (platform pLC): 0 | Fold Change of valine (platform GC): 0.345 | Fold Change of valine (platform nLC): 0.0195 | Fold Change of xanthosine(diH2O) (metabolite xanthosine(diH2O), platform pLC): 0 | Fold Change of xanthosineDiH2O (metabolite xanthosineDiH2O, platform nLC): 0 | Fold Change of zeatin (platform nLC): 0 | Fold Change of zeatin (platform pLC): 0
